Results reported in the NIST ThermoML archive (doi:10.1021/je050092d).

Columns and labels:
[1] = for molar entropy: 101.33 kPa, Vacuum adiabatic calorimetry
[2] = Molar enthalpy of transition or fusion; conditions: Adiabatic calorimetry

CCCCCCCCCCCCCCCCCC(=O)OCC(COC(=O)CCCCCCCCCCCCCCCCC)OC(=O)CCCCCCCCCCCCCCCCC [glycerol trioctadecanoate]
[1]
Conditions | Normal melting temperature [°C] | Triple point temperature [K] | molar entropy [J/K/mol]
10 K, Crystal | – | – | 5.349
20 K, Crystal | – | – | 32.09
30 K, Crystal | – | – | 74.88
40 K, Crystal | – | – | 130.16
50 K, Crystal | – | – | 188.99
60 K, Crystal | – | – | 251.4
70 K, Crystal | – | – | 315.58
80 K, Crystal | – | – | 380.66
90 K, Crystal | – | – | 443.96
100 K, Crystal | – | – | 504.58
110 K, Crystal | – | – | 562.52
120 K, Crystal | – | – | 618.69
130 K, Crystal | – | – | 673.07
140 K, Crystal | – | – | 726.56
150 K, Crystal | – | – | 778.26
160 K, Crystal | – | – | 829.97
170 K, Crystal | – | – | 879.89
180 K, Crystal | – | – | 929.81
190 K, Crystal | – | – | 978.84
200 K, Crystal | – | – | 1028.8
210 K, Crystal | – | – | 1077.8
220 K, Crystal | – | – | 1125.9
230 K, Crystal | – | – | 1173.2
240 K, Crystal | – | – | 1219.5
250 K, Crystal | – | – | 1266.8
260 K, Crystal | – | – | 1314
270 K, Crystal | – | – | 1361.3
280 K, Crystal | – | – | 1408.5
290 K, Crystal | – | – | 1456.7
298.15 K, Crystal | – | – | 1495.9
300 K, Crystal | – | – | 1504.8
310 K, Crystal | – | – | 1553.8
320 K, Crystal | – | – | 1603.8
330 K, Crystal | – | – | 1655.5
Crystal, Adiabatic calorimetry | – | 345.94 | –
Metastable crystal, Adiabatic calorimetry | 54.2 | – | –

[2]
Conditions | Molar enthalpy of transition or fusion [kcal/mol]
Crystal | 47.22
Metastable crystal | 30.9
